Test results taken from PMC11167047 (Cell Death Discovery, 2024).

Columns and labels:
Experiment in all cases: kinome screen (33PanQinase)
Type in all cases: biochemical
BTK = biological target: T1, BTK (Homo sapiens, UniProt Q06187)
T1 construct: purchased Reaction Biology Europe GmbH (formerly ProQinase)
Experimental: (§1) The Kinome Screening was performed by Reaction Biology Europe GmbH (http://reactionbiology.com; Freiburg i. Br., Germany).

CDK5/p25NCK = biological target: T2, CDK5/p25NCK (Homo sapiens, UniProt Q00535)
T2 construct: purchased Reaction Biology Europe GmbH (formerly ProQinase)
T2 sequence (Q00535 whole entry): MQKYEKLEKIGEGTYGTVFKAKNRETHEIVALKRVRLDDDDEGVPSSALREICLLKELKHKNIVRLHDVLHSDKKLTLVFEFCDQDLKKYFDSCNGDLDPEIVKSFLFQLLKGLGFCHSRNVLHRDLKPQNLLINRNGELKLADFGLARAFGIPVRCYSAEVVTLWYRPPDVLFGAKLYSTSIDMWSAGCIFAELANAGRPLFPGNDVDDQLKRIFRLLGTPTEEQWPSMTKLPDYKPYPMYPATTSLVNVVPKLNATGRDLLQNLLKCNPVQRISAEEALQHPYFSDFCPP
T2 sequence (Q15078 99-307 partner limits assumed): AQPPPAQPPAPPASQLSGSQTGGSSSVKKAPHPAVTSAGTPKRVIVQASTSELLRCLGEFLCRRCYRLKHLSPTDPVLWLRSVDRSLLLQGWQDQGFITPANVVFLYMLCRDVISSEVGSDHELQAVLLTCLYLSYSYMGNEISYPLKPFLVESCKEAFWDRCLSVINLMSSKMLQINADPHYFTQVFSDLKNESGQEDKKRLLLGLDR
Experimental: as §1

DYRK3 = biological target: T3, DYRK3 (Homo sapiens, UniProt O43781)
T3 construct: purchased Reaction Biology Europe GmbH (formerly ProQinase)
T3 sequence (O43781 1-588): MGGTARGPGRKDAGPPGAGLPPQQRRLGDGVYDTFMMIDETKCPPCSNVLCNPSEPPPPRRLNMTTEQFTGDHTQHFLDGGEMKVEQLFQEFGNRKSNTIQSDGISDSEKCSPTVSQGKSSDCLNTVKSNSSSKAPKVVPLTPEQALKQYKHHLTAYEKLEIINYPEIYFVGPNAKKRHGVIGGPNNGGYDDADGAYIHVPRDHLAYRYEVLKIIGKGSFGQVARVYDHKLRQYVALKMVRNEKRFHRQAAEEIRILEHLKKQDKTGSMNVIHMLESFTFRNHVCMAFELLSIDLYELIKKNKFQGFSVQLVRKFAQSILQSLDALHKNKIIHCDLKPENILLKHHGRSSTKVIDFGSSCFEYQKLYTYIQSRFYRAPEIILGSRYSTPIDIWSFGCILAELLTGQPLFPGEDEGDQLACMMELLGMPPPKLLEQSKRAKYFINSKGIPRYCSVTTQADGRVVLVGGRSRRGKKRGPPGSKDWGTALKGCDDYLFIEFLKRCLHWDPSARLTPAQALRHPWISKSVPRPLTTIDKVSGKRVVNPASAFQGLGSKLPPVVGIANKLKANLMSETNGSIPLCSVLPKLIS
Experimental: as §1

ASK1 = biological target: T4, ASK1 (Homo sapiens, UniProt Q99683)
T4 construct: purchased Reaction Biology Europe GmbH (formerly ProQinase)
T4 sequence (Q99683 1-1374): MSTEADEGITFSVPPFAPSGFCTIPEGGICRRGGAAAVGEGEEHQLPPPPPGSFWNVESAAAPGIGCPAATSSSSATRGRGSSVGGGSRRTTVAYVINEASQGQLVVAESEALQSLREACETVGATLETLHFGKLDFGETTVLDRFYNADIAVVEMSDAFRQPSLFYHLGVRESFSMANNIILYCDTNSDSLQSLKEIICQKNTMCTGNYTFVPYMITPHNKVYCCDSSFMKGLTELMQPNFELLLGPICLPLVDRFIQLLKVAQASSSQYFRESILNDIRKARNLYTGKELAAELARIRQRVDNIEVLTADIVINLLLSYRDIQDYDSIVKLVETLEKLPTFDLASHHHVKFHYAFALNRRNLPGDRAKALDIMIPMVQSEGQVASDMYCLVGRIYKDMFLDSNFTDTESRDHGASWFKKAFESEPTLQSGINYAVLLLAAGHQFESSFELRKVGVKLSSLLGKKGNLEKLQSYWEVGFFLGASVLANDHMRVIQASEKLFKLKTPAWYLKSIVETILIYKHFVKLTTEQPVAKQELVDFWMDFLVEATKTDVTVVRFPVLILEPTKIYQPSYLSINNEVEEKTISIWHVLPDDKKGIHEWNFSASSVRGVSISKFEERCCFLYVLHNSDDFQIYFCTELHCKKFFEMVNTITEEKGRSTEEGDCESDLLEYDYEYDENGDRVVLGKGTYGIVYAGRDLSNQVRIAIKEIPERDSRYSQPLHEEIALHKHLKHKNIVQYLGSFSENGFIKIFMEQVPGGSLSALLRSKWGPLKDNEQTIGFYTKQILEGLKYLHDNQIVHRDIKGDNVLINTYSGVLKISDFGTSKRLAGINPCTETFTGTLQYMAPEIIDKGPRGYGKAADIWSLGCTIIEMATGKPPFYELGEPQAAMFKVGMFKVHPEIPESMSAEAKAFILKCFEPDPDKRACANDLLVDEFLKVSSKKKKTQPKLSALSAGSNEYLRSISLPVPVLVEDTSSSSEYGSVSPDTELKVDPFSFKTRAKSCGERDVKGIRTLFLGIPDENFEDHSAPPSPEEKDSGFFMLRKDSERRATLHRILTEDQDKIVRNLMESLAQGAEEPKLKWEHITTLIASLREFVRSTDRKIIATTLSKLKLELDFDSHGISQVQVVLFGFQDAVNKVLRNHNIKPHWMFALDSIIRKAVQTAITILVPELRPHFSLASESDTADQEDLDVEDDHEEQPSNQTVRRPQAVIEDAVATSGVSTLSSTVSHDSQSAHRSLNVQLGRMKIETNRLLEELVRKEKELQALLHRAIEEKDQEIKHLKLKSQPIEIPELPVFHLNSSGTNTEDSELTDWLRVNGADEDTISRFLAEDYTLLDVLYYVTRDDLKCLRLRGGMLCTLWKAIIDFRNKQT
Experimental: as §1

ARK5 = biological target: T5, ARK5 (Homo sapiens, UniProt O60285)
T5 construct: purchased Reaction Biology Europe GmbH (formerly ProQinase)
T5 sequence (O60285 1-661): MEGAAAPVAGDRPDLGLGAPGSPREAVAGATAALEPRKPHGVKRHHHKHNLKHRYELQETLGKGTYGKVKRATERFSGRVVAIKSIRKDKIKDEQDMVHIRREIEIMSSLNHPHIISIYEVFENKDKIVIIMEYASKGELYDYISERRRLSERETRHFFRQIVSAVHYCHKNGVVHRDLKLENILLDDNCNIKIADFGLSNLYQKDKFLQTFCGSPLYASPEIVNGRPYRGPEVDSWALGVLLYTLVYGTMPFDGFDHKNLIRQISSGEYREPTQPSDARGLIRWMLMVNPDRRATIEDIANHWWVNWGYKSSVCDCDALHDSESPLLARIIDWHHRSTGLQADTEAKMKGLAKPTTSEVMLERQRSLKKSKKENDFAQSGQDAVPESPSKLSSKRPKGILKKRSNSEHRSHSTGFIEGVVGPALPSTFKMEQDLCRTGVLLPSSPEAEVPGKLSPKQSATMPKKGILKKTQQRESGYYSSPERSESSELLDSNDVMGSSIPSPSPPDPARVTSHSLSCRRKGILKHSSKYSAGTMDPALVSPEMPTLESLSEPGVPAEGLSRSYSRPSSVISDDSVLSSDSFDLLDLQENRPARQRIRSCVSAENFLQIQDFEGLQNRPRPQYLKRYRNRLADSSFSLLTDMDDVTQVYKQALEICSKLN
Experimental: as §1

T1 sequence (Q06187 whole entry): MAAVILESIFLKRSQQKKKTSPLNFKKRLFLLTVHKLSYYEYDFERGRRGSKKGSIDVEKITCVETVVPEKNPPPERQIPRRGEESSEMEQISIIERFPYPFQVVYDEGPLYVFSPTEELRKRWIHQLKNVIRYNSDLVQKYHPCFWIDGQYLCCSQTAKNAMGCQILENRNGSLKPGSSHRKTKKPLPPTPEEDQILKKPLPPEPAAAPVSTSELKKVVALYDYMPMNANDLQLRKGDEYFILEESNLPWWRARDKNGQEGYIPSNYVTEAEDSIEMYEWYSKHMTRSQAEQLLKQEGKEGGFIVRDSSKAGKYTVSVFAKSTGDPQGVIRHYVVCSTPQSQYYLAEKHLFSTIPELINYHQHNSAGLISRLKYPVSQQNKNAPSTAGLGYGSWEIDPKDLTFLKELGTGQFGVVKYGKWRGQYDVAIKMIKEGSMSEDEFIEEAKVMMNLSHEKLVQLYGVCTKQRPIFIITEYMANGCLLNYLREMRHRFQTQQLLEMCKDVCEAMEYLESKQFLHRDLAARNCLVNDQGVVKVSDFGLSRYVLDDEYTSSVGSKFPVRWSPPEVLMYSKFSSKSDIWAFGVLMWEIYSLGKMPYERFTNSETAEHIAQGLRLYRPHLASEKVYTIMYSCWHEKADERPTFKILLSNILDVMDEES

Row | SMILES | residual kinase activity (BTK; 0.03 µM) | residual kinase activity (BTK; 0.3 µM) | residual kinase activity (CDK5/p25NCK; 0.03 µM) | residual kinase activity (CDK5/p25NCK; 0.3 µM) | residual kinase activity (DYRK3; 0.03 µM) | residual kinase activity (DYRK3; 0.3 µM) | residual kinase activity (ASK1; 0.03 µM) | residual kinase activity (ASK1; 0.3 µM) | residual kinase activity (ARK5; 0.03 µM) | residual kinase activity (ARK5; 0.3 µM) | residual kinase activity (BTK; 3 µM) | residual kinase activity (CDK5/p25NCK; 3 µM) | residual kinase activity (DYRK3; 3 µM) | residual kinase activity (ASK1; 3 µM) | residual kinase activity (ARK5; 3 µM)
1 | COc1ccnc2[nH]cc(-c3cc(N)nc(N)c3)c12 [meriolin 16] | 114 % of control | 96 % of control | 16 % of control | 1 % of control | 27 % of control | 2 % of control | 97 % of control | 85 % of control | 92 % of control | 88 % of control |  |  |  |  | 
2 | c1ccc(CNc2cc(-c3c[nH]c4ncccc34)ccn2)cc1 [meriolin 36] |  | 103 % of control |  | 0 % of control |  | 59 % of control |  | 50 % of control |  | 90 % of control | 77 % of control | 1 % of control | 14 % of control | 15 % of control | 40 % of control
